Values joined by “and” are separate entries in the source; they are usually repeats but may differ in a detail not shown here. Equal entries are not always repeated.
Experiment: xn = mol fraction of the nth substance listed
Conditions: 96 kPa, Liquid, Pycnometric method

C1CCC2=NCCCN2CC1 [1,8-diaza-7-bicyclo[5.4.0]undecene] + OCC(O)CO
mass density
Conditions	288.15 K	293.15 K	298.15 K	303.15 K	308.15 K	313.15 K	318.15 K	323.15 K	328.15 K
x1 = 0.0501	1251.8 kg/m3	–	1245.4 kg/m3	–	1239 kg/m3	–	1232.2 kg/m3	–	1224.9 kg/m3
x1 = 0.0909	1238.4 kg/m3	–	1231.7 kg/m3	–	1224.7 kg/m3	–	1217.1 kg/m3	–	1208.3 kg/m3
x1 = 0.0926	–	1236.7 kg/m3	–	1229.7 kg/m3	–	1222.9 kg/m3	–	1216 kg/m3	–
x1 = 0.1667	1211.2 kg/m3	–	1204.2 kg/m3	–	1196.4 kg/m3	–	1188.2 kg/m3	–	1180.2 kg/m3
x1 = 0.1902	–	1197.8 kg/m3	–	1191.9 kg/m3	–	1184.5 kg/m3	–	1177.6 kg/m3	–
x1 = 0.2	1200.6 kg/m3	–	1192.3 kg/m3	–	1184.9 kg/m3	–	1176.9 kg/m3	–	1170.9 kg/m3 and 1169.4 kg/m3
x1 = 0.2153	1195.3 kg/m3	–	1187 kg/m3	–	1179.6 kg/m3	–	1171.5 kg/m3	–	1164.2 kg/m3
x1 = 0.2306	1190.3 kg/m3	–	1181.8 kg/m3	–	1174.6 kg/m3	–	1166.7 kg/m3	–	1158.9 kg/m3
x1 = 0.2998	–	1161.7 kg/m3	–	1156.4 kg/m3	–	1149.2 kg/m3	–	1142.5 kg/m3	–
x1 = 0.3059	1167.2 kg/m3	–	1158 kg/m3	–	1150.5 kg/m3	–	1142.9 kg/m3	–	1136 kg/m3
x1 = 0.3333	1159.4 kg/m3	–	1149.8 kg/m3	–	1142.5 kg/m3	–	1134.9 kg/m3	–	1128 kg/m3
x1 = 0.3996	–	1133.2 kg/m3	–	1128.3 kg/m3	–	1121.2 kg/m3	–	1114.6 kg/m3	–
x1 = 0.4011	1141.5 kg/m3	–	1131.6 kg/m3	–	1124.1 kg/m3	–	1117.3 kg/m3	–	1109.7 kg/m3
x1 = 0.5	1117.4 kg/m3	–	1107.1 kg/m3 and 1108.1 kg/m3	–	1100.2 kg/m3	–	1091.1 kg/m3 and 1093.5 kg/m3	–	1086 kg/m3
x1 = 0.5032	–	1108.7 kg/m3	–	1102.3 kg/m3	–	1095.3 kg/m3	–	1087.4 kg/m3	–
x1 = 0.5632	1102.9 kg/m3	–	1093.7 kg/m3	–	1086.4 kg/m3	–	1079.3 kg/m3	–	1071.9 kg/m3
x1 = 0.5995	–	1088 kg/m3	–	1081.9 kg/m3	–	1075.9 kg/m3	–	1068.3 kg/m3	–
x1 = 0.625	1089.8 kg/m3	–	1081 kg/m3	–	1073.9 kg/m3	–	1066.7 kg/m3	–	1059.1 kg/m3
x1 = 0.6992	–	1069.6 kg/m3	–	1064.2 kg/m3	–	1056.8 kg/m3	–	1049.7 kg/m3	–
x1 = 0.75	1066.1 kg/m3 and 1065.4 kg/m3	–	1058.1 kg/m3	–	1050.9 kg/m3	–	1042.7 kg/m3	–	1035.3 kg/m3
x1 = 0.7998	–	1052.3 kg/m3	–	1045.7 kg/m3	–	1038.7 kg/m3	–	1031.5 kg/m3	–
x1 = 0.8333	1051.7 kg/m3	–	1044.3 kg/m3	–	1037 kg/m3	–	1028.7 kg/m3	–	1021.1 kg/m3
x1 = 0.9001	–	1030.8 kg/m3	–	1028.9 kg/m3	–	1021.2 kg/m3	–	1013.9 kg/m3	–
x1 = 1	1020.6 kg/m3	1017.1 kg/m3	1014.1 kg/m3	1010.9 kg/m3	1007.4 kg/m3	1004.6 kg/m3	1000.8 kg/m3	998.4 kg/m3	994.2 kg/m3
